In PubChem BioAssay (NCI):
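48-hour exposure; five concentrations; linearly interpolated endpoints. GI50: concentration for 50% inhibition of growth. TGI is the concentration that stops growth completely.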

Assays:
Test in all cases: DTP human tumour cell line panel, 48 h
[1] = tested on: M14 melanoma
[2] = tested on: OVCAR-8 ovarian
[3] = tested on: TK-10 renal
[4] = tested on: DU-145 prostate
[5] = tested on: RPMI-8226 leukemia
[6] = tested on: T-47D breast
[7] = tested on: OVCAR-3 ovarian
[8] = tested on: SK-MEL-28 melanoma
[9] = tested on: LOX IMVI melanoma
[10] = tested on: OVCAR-5 ovarian
[11] = tested on: RXF 393 renal
[12] = tested on: NCI-H23 lung
[13] = tested on: SNB-19 CNS
[14] = tested on: MDA-MB-435
[15] = tested on: NCI-H226 lung
[16] = tested on: HT29 colon
[17] = tested on: UACC-62 melanoma
[18] = tested on: SF-295 CNS
[19] = tested on: NCI-H522 lung
[20] = tested on: MDA-MB-231 breast
[21] = tested on: UO-31 renal
[22] = tested on: A549 NSCLC
[23] = tested on: KM12 colon
[24] = tested on: HL-60(TB) leukemia
[25] = tested on: BT-549 breast
[26] = tested on: CAKI-1 renal
[27] = tested on: SK-OV-3 ovarian
[28] = tested on: MCF7 breast
[29] = tested on: UACC-257 melanoma
[30] = tested on: COLO 205 colon
[31] = tested on: A498 renal
[32] = tested on: SK-MEL-5 melanoma
[33] = tested on: SNB-75 CNS
[34] = tested on: NCI-H460 lung
[35] = tested on: ACHN renal
[36] = tested on: SF-268 CNS
[37] = tested on: PC-3 prostate
[38] = tested on: HOP-62 NSCLC
[39] = tested on: SW-620 colon
[40] = tested on: MALME-3M melanoma
[41] = tested on: IGROV1 ovarian
[42] = tested on: HS 578T breast
[43] = tested on: HCC-2998 colon
[44] = tested on: 786-0 renal
[45] = tested on: SK-MEL-2 melanoma
[46] = tested on: SN12C renal
[47] = tested on: MOLT-4 leukemia
[48] = tested on: HCT-116 colon
[49] = tested on: HCT-15 colon
[50] = tested on: K-562 leukemia
[51] = tested on: HOP-92 NSCLC
[52] = tested on: SF-539 CNS
[53] = tested on: U251 CNS
[54] = tested on: CCRF-CEM leukemia
[55] = tested on: NCI/ADR-RES ovarian
[56] = tested on: SR leukemia
[57] = tested on: OVCAR-4 ovarian
[58] = tested on: EKVX NSCLC

What does the source list for `CCn1c(=O)c(Oc2ccc(F)cc2F)cc2cnc(NC3CCOCC3)nc21`?
GI50 [1]: > 25 µM; TGI [1]: > 25 µM; GI50 [2]: > 25 µM; TGI [2]: > 25 µM; GI50 [3]: 19.7 µM; TGI [3]: > 25 µM; GI50 [4]: > 25 µM; TGI [4]: > 25 µM; GI50 [5]: > 25 µM; TGI [5]: > 25 µM; GI50 [6]: > 25 µM; TGI [6]: > 25 µM; GI50 [7]: > 25 µM; TGI [7]: > 25 µM; GI50 [8]: > 25 µM; TGI [8]: > 25 µM; GI50 [9]: > 25 µM; TGI [9]: > 25 µM; GI50 [10]: > 25 µM; TGI [10]: > 25 µM; GI50 [11]: > 18.7 µM; TGI [11]: > 25 µM; GI50 [12]: > 25 µM; TGI [12]: > 25 µM; GI50 [13]: > 25 µM; TGI [13]: > 25 µM; GI50 [14]: > 25 µM; TGI [14]: > 25 µM; GI50 [15]: > 25 µM; TGI [15]: > 25 µM; GI50 [16]: > 25 µM; TGI [16]: > 25 µM; GI50 [17]: > 25 µM; TGI [17]: > 25 µM; GI50 [18]: > 25 µM; TGI [18]: > 25 µM; GI50 [19]: > 25 µM; TGI [19]: > 25 µM; GI50 [20]: > 25 µM; TGI [20]: > 25 µM; GI50 [21]: 5.47 µM; TGI [21]: > 15.2 µM; GI50 [22]: > 25 µM; TGI [22]: > 25 µM; GI50 [23]: > 25 µM; TGI [23]: > 25 µM; GI50 [24]: > 14.1 µM; TGI [24]: > 25 µM; GI50 [25]: > 25 µM; TGI [25]: > 25 µM; GI50 [26]: > 25 µM; TGI [26]: > 25 µM; GI50 [27]: > 25 µM; TGI [27]: > 25 µM; GI50 [28]: > 25 µM; TGI [28]: > 25 µM; GI50 [29]: > 25 µM; TGI [29]: > 25 µM; GI50 [30]: > 25 µM; TGI [30]: > 25 µM; GI50 [31]: 6.94 µM; TGI [31]: > 25 µM; GI50 [32]: > 25 µM; TGI [32]: > 25 µM; GI50 [33]: > 25 µM; TGI [33]: > 25 µM; GI50 [34]: > 25 µM; TGI [34]: > 25 µM; GI50 [35]: > 25 µM; TGI [35]: > 25 µM; GI50 [36]: > 25 µM; TGI [36]: > 25 µM; GI50 [37]: > 25 µM; TGI [37]: > 25 µM; GI50 [38]: > 25 µM; TGI [38]: > 25 µM; GI50 [39]: > 25 µM; TGI [39]: > 25 µM; GI50 [40]: > 25 µM; TGI [40]: > 25 µM; GI50 [41]: > 25 µM; TGI [41]: > 25 µM; GI50 [42]: > 16.4 µM; TGI [42]: > 25 µM; GI50 [43]: > 25 µM; TGI [43]: > 25 µM; GI50 [44]: > 25 µM; TGI [44]: > 25 µM; GI50 [45]: > 25 µM; TGI [45]: > 25 µM; GI50 [46]: > 25 µM; TGI [46]: > 25 µM; GI50 [47]: > 25 µM; TGI [47]: > 25 µM; GI50 [48]: > 25 µM; TGI [48]: > 25 µM; GI50 [49]: > 25 µM; TGI [49]: > 25 µM; GI50 [50]: > 25 µM; TGI [50]: > 25 µM; GI50 [51]: 3.19 µM; TGI [51]: > 25 µM; GI50 [52]: > 25 µM; TGI [52]: > 25 µM; GI50 [53]: > 25 µM; TGI [53]: > 25 µM; GI50 [54]: > 25 µM; TGI [54]: > 25 µM; GI50 [55]: > 25 µM; TGI [55]: > 25 µM; GI50 [56]: > 25 µM; TGI [56]: > 25 µM; GI50 [57]: > 25 µM; TGI [57]: > 25 µM

`N[C@]1(C(=O)O)C[C@@H]2C(Br)=NO[C@@H]2C1` was tested. Which TGI [1] did it give?
Its TGI is > 100 µM.

What about the TGI [2] of the same molecule?
Its TGI is > 100 µM.

And the TGI [3]?
The TGI was > 100 µM.

What about the TGI [4] of the same molecule?
Its TGI is > 100 µM.

What about the TGI [5] of the same molecule?
The TGI was > 100 µM.

What about the TGI [6] of the same molecule?
The TGI was > 100 µM.

What about the TGI [7] of the same molecule?
Its TGI is > 100 µM.

What about the TGI [10] of the same molecule?
Its TGI is > 100 µM.

What about the TGI [11] of the same molecule?
The TGI was > 100 µM.

What about the TGI [12] of the same molecule?
The TGI was > 100 µM.

What about the TGI [13] of the same molecule?
Its TGI is > 100 µM.

What about the TGI [14] of the same molecule?
The TGI was > 100 µM.

And the TGI [15]?
The TGI was > 100 µM.

What about the TGI [16] of the same molecule?
Its TGI is > 100 µM.

What about the TGI [17] of the same molecule?
Its TGI is > 100 µM.

What about the TGI [18] of the same molecule?
The TGI was > 100 µM.

What about the TGI [19] of the same molecule?
Its TGI is > 100 µM.

And the TGI [20]?
Its TGI is > 100 µM.

What about the TGI [21] of the same molecule?
Its TGI is > 100 µM.

What about the TGI [22] of the same molecule?
Its TGI is > 100 µM.

And the TGI [23]?
Its TGI is > 100 µM.

And the TGI [24]?
The TGI was > 100 µM.

And the TGI [25]?
The TGI was > 100 µM.

What about the TGI [26] of the same molecule?
The TGI was > 100 µM.

And the TGI [27]?
Its TGI is > 100 µM.

What about the TGI [28] of the same molecule?
Its TGI is > 100 µM.

What about the TGI [29] of the same molecule?
Its TGI is > 100 µM.

What about the TGI [30] of the same molecule?
The TGI was > 100 µM.

And the TGI [31]?
Its TGI is > 100 µM.

And the TGI [32]?
The TGI was > 100 µM.

What about the TGI [33] of the same molecule?
The TGI was > 100 µM.

And the TGI [34]?
The TGI was > 100 µM.

What about the TGI [35] of the same molecule?
The TGI was > 100 µM.

And the TGI [36]?
Its TGI is > 100 µM.

And the TGI [37]?
The TGI was > 100 µM.

What about the TGI [38] of the same molecule?
The TGI was > 100 µM.

What about the TGI [39] of the same molecule?
Its TGI is > 100 µM.

What about the TGI [40] of the same molecule?
The TGI was > 100 µM.

What about the TGI [58] of the same molecule?
Its TGI is > 100 µM.

What about the TGI [42] of the same molecule?
Its TGI is > 100 µM.

What about the TGI [43] of the same molecule?
The TGI was > 100 µM.

What about the TGI [44] of the same molecule?
The TGI was > 100 µM.

What about the TGI [45] of the same molecule?
Its TGI is > 100 µM.

What about the TGI [47] of the same molecule?
The TGI was > 100 µM.

What about the TGI [48] of the same molecule?
The TGI was > 100 µM.

And the TGI [49]?
The TGI was > 100 µM.

And the TGI [51]?
The TGI was > 100 µM.

And the TGI [52]?
The TGI was > 100 µM.

What about the TGI [53] of the same molecule?
Its TGI is > 100 µM.

And the TGI [55]?
The TGI was > 100 µM.

What about the TGI [56] of the same molecule?
Its TGI is > 100 µM.

What about the TGI [57] of the same molecule?
The TGI was > 100 µM.
